Laboratory results reported in the PolyMetriX glass transition set.
± gives the standard deviation of the reports.

Compound | glass transition temperature
*CCCCCCCN1C(=O)c2ccc(C(=O)Oc3ccc(-c4ccc(OC(=O)c5ccc6c(c5)C(=O)N(*)C6=O)cc4)cc3)cc2C1=O (repeat unit) | 117.00 °C
*OCCOC(=O)CCCC(=O)OCCOc1nc(-c2ccc(OCCCC)cc2)nc(*)c1-c1ccc(OCCCC)cc1 (repeat unit) | 37.00 °C
*c1cccc(P(=O)(c2ccc(C(F)(F)F)cc2)c2cccc(-n3c(=O)c4c(-c5ccc(C(F)(F)F)cc5)c5c(=O)n(*)c(=O)c5c(-c5ccc(C(F)(F)F)cc5)c4c3=O)c2)c1 (repeat unit) | 324.00 °C
*CC(*)(C)C(=O)Oc1ccc(C#N)cc1 (repeat unit) | 155.00 °C
*C#Cc1cccc(C#C[SiH](*)c2ccccc2)c1 (repeat unit) | 85.00 °C
*C(=O)c1ccc2c(c1)C(=O)N(c1ccc(-c3cc(-c4ccc(OC)cc4)cc(-c4ccc(N5C(=O)c6ccc(*)cc6C5=O)cc4)n3)cc1)C2=O (repeat unit) | 331.00 °C
*CC(*)C=C (repeat unit) [Poly(1,2-butadiene)] | -6.08 ± 1.3 °C
*CCC(=O)Nc1ccc(NC(=O)CCN2C(=O)c3ccc(C(=O)c4ccc5c(c4)C(=O)N(*)C5=O)cc3C2=O)cc1 (repeat unit) | 237.00 °C
*Oc1cc(OC(=O)c2ccc(C)cc2)c(OC(=O)CCCCCCCCCCCCCCC(*)=O)cc1OC(=O)c1ccc(C)cc1 (repeat unit) | 27.00 °C
*/C=C/c1sc(/C=C/c2ccc3c4ccc(*)cc4n(CC(CC)CCCC)c3c2)c(CC(CC)CCCC)c1CC(CC)CCCC (repeat unit) | 60.00 °C
*Cc1ccc(CSSSS*)cc1 (repeat unit) | 3.00 °C
*Oc1ccc(C2(c3ccc(OC(=O)c4ccc(C(*)=O)cc4)cc3)CC3CC2C2CCCC32)cc1 (repeat unit) | 322.00 °C
*Oc1cccc(NC(=O)CCCCCC(=O)Nc2ccc(*)cc2)c1 (repeat unit) | 130.00 °C
*CC(OC(=O)C(Cc1ccccc1)NC(=O)OC(C)(C)C)C(COC(=O)O*)OC(=O)C(Cc1ccccc1)NC(=O)OC(C)(C)C (repeat unit) | 82.40 °C
*O[Si](C)(C)CCC/N=C1C=C(O)/C(=N\CCC[Si](*)(C)C)C=C\1O (repeat unit) | 70.34 °C
*c1cccc(-n2nc(-c3ccccc3)c3cc(Oc4ccc(C(C)(C)c5ccc(Oc6ccc7c(-c8ccccc8)nn(*)c(=O)c7c6)cc5)cc4)ccc3c2=O)c1C#N (repeat unit) | 200.00 °C
*c1ccc2c(c1)C(=O)N(c1ccc(Oc3cccc(Oc4ccc(N5C(=O)c6ccc(C(*)(C(F)(F)F)C(F)(F)F)cc6C5=O)cc4)c3C#N)cc1)C2=O (repeat unit) | 280.00 °C
*CCCC(C)(C)CNC(=O)CCCCCC(=O)N* (repeat unit) | 70.50 °C
*CC(*)(C)C(=O)OCCCCn1c2ccccc2c2ccccc21 (repeat unit) | 59.20 °C
*C(=O)Nc1ccc(Oc2ccccc2-c2ccccc2Oc2ccc(NC(=O)c3ccc4c(c3)C(=O)N(c3ccc(Oc5ccc(C(C)(C)c6ccc(Oc7ccc(N8C(=O)c9ccc(*)cc9C8=O)cc7)cc6)cc5)cc3)C4=O)cc2)cc1 (repeat unit) | 229.00 °C
*CC(CCCCCCCCCC)O* (repeat unit) | -41.00 °C
*Nc1ccc(NC(=O)CCCCCCC(*)=O)cc1 (repeat unit) | 138.00 °C
*C(=O)c1ccc2c(c1)C(=O)N(c1ccc(Oc3ccc(C(c4ccc(Oc5ccc(N6C(=O)c7ccc(*)cc7C6=O)cc5C(F)(F)F)cc4)(C(F)(F)F)C(F)(F)F)cc3)c(C(F)(F)F)c1)C2=O (repeat unit) | 220.00 °C
*CC1(C)CC(N2C(=O)c3ccc(Oc4ccc5c(c4)C(=O)N(*)C5=O)cc3C2=O)CC(C)(C)C1 (repeat unit) | 266.00 °C
*Oc1ccc(Oc2ccc(Nc3ccc(S(=O)(=O)c4ccc(Nc5ccc(*)cc5)cc4)cc3)cc2)cc1 (repeat unit) | 144.60 °C
*CCCCCCCCCCCCOC(=O)c1ccc2cc(C(=O)O*)ccc2c1 (repeat unit) | 45.00 °C
*Oc1ccc(Oc2ccc(C(=O)c3ccc(*)c(S(=O)(=O)O)c3)cc2S(=O)(=O)O)cc1 (repeat unit) | 220.00 °C
*Nc1ccc(NC(=O)c2ccc(NC(=O)CCCCCCCCC(=O)Nc3ccc(C(*)=O)cc3)cc2)cc1C(=O)OCCCCCCCCCCCCCCCC (repeat unit) | 220.00 °C
*C(=O)c1ccc2c(c1)C(=O)N(c1c(C)cc(-c3cc(C)c(N4C(=O)c5ccc(*)cc5C4=O)c(C)c3)cc1C)C2=O (repeat unit) | 310.00 °C
*Oc1c(C)cc(C2(c3cc(C)c(Oc4ccc(C(=O)c5cccc(C(=O)c6ccc(*)cc6)c5)cc4)c(C)c3)CCC3CCCCC3C2)cc1C (repeat unit) | 224.00 °C

Results, then the compound that gave them:

glass transition temperature | Compound
190.50 °C | *c1cccc(Oc2cccc(Oc3cccc(N4C(=O)c5ccc(Oc6ccc(Sc7ccc(Oc8ccc9c(c8)C(=O)N(*)C9=O)cc7)cc6)cc5C4=O)c3)c2)c1 (repeat unit)
-63.00 °C | *O[Si](C)(C=C)O[Si](C)(C)c1ccc([Si](*)(C)C)cc1 (repeat unit)
370.00 °C | *c1ccc2c(c1)C(=O)N(c1cc(-c3ccc(O)c(N4C(=O)c5ccc(C(*)(C(F)(F)F)C(F)(F)F)cc5C4=O)c3)ccc1O)C2=O (repeat unit)
20.00 °C | */C=C(/*)CCCOc1ccc(OC(=O)c2ccc(OC)cc2)cc1 (repeat unit)
338.00 °C | *c1cccc(N2C(=O)c3ccc(C(c4ccc5c(c4)C(=O)N(c4cccc(-n6c(=O)c7cc8c(=O)n(*)c(=O)c8cc7c6=O)c4)C5=O)(C(F)(F)F)C(F)(F)F)cc3C2=O)c1 (repeat unit)
259.00 °C | *c1ccc2c(c1)C(=O)N(c1ccc(S(=O)(=O)c3ccc(N4C(=O)c5ccc(C(F)(F)C(F)(F)C(*)(F)F)cc5C4=O)cc3)cc1)C2=O (repeat unit)
265.00 °C | *c1c(C)cc(-c2cc(C)c(N3C(=O)c4cccc(Oc5ccc(C(C)(C)c6ccc(Oc7cccc8c7C(=O)N(*)C8=O)cc6)cc5)c4C3=O)c(C)c2)cc1C (repeat unit)
404.00 ± 8.5 °C | *C(=O)c1ccc2c(c1)C(=O)N(c1c(C)cc(C)c(N3C(=O)c4ccc(*)cc4C3=O)c1C)C2=O (repeat unit)
244.00 °C | *c1ccc(Oc2ccc(Oc3ccc(NC(=O)c4ccc(Oc5cccc6c5C(=O)N(*)C6=O)cc4)cc3)cc2)cc1 (repeat unit)
57.00 °C | *CCCCCCNC(=O)CCCCCCC(=O)N* (repeat unit)
52.00 °C | *CCCCCCCCNC(=O)CCCCCCCCCCCCCCC(=O)N* (repeat unit)
149.00 °C | *CCN(CCOC(=O)c1ccc(C(=O)O*)cc1)c1ccc(/N=N/c2ccc(-c3nc4ccc([N+](=O)[O-])cc4n3CC)cc2)cc1 (repeat unit)
267.00 °C | *Oc1ccc(OC(=O)c2ccc(C(*)=O)cc2)cc1 (repeat unit)
262.00 °C | *C(=O)Nc1ccc(Oc2ccc(-c3ccc(Oc4ccc(NC(=O)c5ccc6c(c5)C(=O)N(c5ccc(Oc7ccc(N8C(=O)c9ccc(*)cc9C8=O)cc7)cc5)C6=O)cc4)cc3)cc2)cc1 (repeat unit)
